Assay results published in US20180055868A1, “METHODS AND COMPOSITIONS FOR STIMULATING BONE REGENERATION” (New York University, priority 2012, published 2018).

Legend:
[1] = system: trephined calvarium bone defect; assay: Trephined 3 mm calvarial defect, collagen matrix reinjected daily, microCT bone regeneration (Example 2); format: in vivo, mice; conditions: 8 weeks post trephination; for concentration achieving maximal effect on bone regeneration / dose dependence of effect on bone regeneration: FIG. 3; for effect on bone regeneration: microCT, FIG. 2
Description: In FIG. 2B, the percentage bone regeneration is calculated as the percent of the original defect that was now filled with bone.
(§1) A 3 mm portion of the calvarium was trephined with a drill followed by implantation of a collagen matrix soaked in either a vehicle or a pharmacologic agent and/or receptor antagonists to promote bone regeneration. The matrix was reinjected daily with the agent for periods ranging from 2-8 weeks prior to harvest of the mice and examination of the calvaria. […] Experiments were performed with specific agonists and antagonists at varying doses, and specific receptor agonists were tested on corresponding knockout mice to better confirm the role of the indicated receptor.
(§2) Some of the calvaria were decalcified, and histochemical and immunohistochemical staining and microscopic analyses were performed. Other calvaria were cleaned of adherent tissue and subject to microCT analysis for bone defect size and percent regeneration measures.

[2] = system: osteoblasts and osteoclasts in the regenerating bone; assay: Histochemical and immunohistochemical staining of regenerating calvarial bone sections; format: in vivo, mice; conditions: for TRAP stained osteoclasts in the regenerating bone / alkaline phosphatase positive osteoblasts in the regenerating bone / RANK+ cells in the regenerating bone / RANKL+ cells in the regenerating bone / osteoprotegerin+ cells in the regenerating bone: cells/hpf vs control; for TRAP stained osteoclasts in the regenerating bone / alkaline phosphatase positive osteoblasts in the regenerating bone: FIG. 7; for bone formation shown histologically: histology of calvaria, FIG. 9; for RANK+ cells in the regenerating bone / RANKL+ cells in the regenerating bone / osteoprotegerin+ cells in the regenerating bone: immunohistochemistry, FIG. 8
From the text: Shown in FIG. 7A are representative medium powered fields of calvarial sections stained immunohistochemically for alkaline phosphatase (left hand column, a marker for osteoblasts). Shown in the next column of figures are sections stained histochemically for tartrate resistant acid phosphatase (a marker for osteoclasts). Arrows in these figures point to osteoblasts (first column) or osteoclasts (second column).
Paraffin embedded sections are stained immunohistochemically for RANK, RANKL or osteoprotegerin. Slides are imaged and positive cells (brown) are enumerated in three fields. Shown on the left are representative medium power sections of immunohistochemcically stained sections.
Staining of decalcified bone sections for osteoclasts (TRAP staining) and osteoblasts (alkaline phosphatase staining) was performed. Immunostaining for other markers of osteoclast (cathepsin K) lineage and other molecules of interest (e.g. semaphorin 4D, plexin-B1, nuclear b-catenin) were performed.
as §2

[3] = system: trephined calvarium bone defect in A2BKO mice; assay: Calvarial defect bone regeneration in A2B receptor knockout (A2BKO) mice; format: in vivo; conditions: 8 weeks post trephination, FIG. 5
Description: as §1

A3 adenosine receptor = target: T1, A3 adenosine receptor (Homo sapiens, UniProt P0DMS8); conditions: cited from earlier work
T1 sequence (P0DMS8 1-318): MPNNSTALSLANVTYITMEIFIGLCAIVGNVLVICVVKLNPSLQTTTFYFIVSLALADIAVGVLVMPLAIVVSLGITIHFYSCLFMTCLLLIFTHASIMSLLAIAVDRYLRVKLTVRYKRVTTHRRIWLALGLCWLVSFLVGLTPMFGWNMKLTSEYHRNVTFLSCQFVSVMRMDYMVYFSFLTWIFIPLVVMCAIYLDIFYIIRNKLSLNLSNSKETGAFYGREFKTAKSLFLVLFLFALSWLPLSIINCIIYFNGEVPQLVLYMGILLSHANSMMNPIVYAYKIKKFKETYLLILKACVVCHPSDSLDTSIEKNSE

defect in mouse calvaria = assay: 3 mm mouse calvarial bone defect with drug-soaked collagen matrix, microCT (Example 1); format: in vivo, C57B6 mice; conditions: collagen matrix in 3 mm calvarial defect, 8 weeks
Description: . Under general anesthesia a 3 mm in diameter defect is drilled into the skull of C57B6 mice. […]. The matrix is then reinjected with 100 μl of these agents daily for 8 weeks before harvest. […] FIG. 1B represents the percentage bone regeneration calculated as the percent of the original defect that was now filled with bone. Shown are the means (+SD) of results obtained in 3 animals for each condition. Results were analyzed by ANOVA. ***p<0.001
A 3 mm in diameter defect was created in mouse calvaria into which was fit a collagen matrix. […].

[4] = system: peripheral blood monocytes; conditions: effect mediated by adenosine acting at A1 receptors; cited from earlier work

Row | Compound | concentration achieving maximal effect on bone regeneration [1] [µM] | dose dependence of effect on bone regeneration [1] | effect on bone regeneration [1] | TRAP stained osteoclasts in the regenerating bone [2] | alkaline phosphatase positive osteoblasts in the regenerating bone [2] | bone formation shown histologically [2] | RANK+ cells in the regenerating bone [2] | RANKL+ cells in the regenerating bone [2] | osteoprotegerin+ cells in the regenerating bone [2] | further results
1 | CNC(=O)[C@H]1O[C@@H](n2cnc3c(NCc4cccc(I)c4)ncnc32)[C@H](O)[C@@H]1O [adenosine A3 receptor agonist] | 1 | dose-dependent | no effect |  |  |  |  |  |  | 
2 | CCCn1c(=O)c2[nH]c(C3CCCC3)nc2n(CCC)c1=O [DPCPX, 8-Cyclopentyl-1,3-dipropylxanthine] | 1 | dose-dependent | stimulate bone regeneration | reduce | increase | bone formation | reduction | reduction | increase | effect of the agent on bone regeneration upon deletion of the A2B receptor [3]: reverses the effect
3 | Nc1ncnc2c1ncn2[C@@H]1O[C@H](CO)[C@@H](O)[C@H]1O [adenosine] |  |  |  |  |  |  |  |  |  | affinity for adenosine (A3 adenosine receptor): low-micromolar range
4 | OCCN(CCO)c1nc(N2CCCCC2)c2nc(N(CCO)CCO)nc(N3CCCCC3)c2n1 [dipyridamole] | 1 | dose-dependent | promotes bone regeneration | reduce | increase | bone formation | reduction | reduction | increase | effect on bone regeneration (defect in mouse calvaria): stimulates bone regeneration
5 | Nc1nc(NCCc2ccc(O)cc2)nc2nc(-c3ccco3)nn12 [ZM241385] |  |  |  |  |  |  |  |  |  | effect of antagonist on bone regeneration promoted by dipyridamole ([1]; FIG. 4): blocks the effect; effect of antagonist on bone regeneration promoted by the A2A agonist CGS21680 ([1]; FIG. 4): blocks the effect
6 | CCNC(=O)[C@H]1O[C@@H](n2cnc3c(N)nc(NCCc4ccc(CCC(=O)O)cc4)nc32)[C@H](O)[C@@H]1O [CGS21680] | 1 | dose-dependent | stimulate bone regeneration | reduce | increase | bone formation | reduction | reduction | increase | effect of the agent on bone regeneration upon deletion of the A2B receptor [3]: reverses the effect
7 | N#Cc1c(N)nc(SCC(N)=O)c(C#N)c1-c1ccc(OCC2CC2)cc1 [BAY606583] | 1 | dose-dependent | stimulate bone regeneration |  |  |  |  |  |  | 
8 | CN(Cc1cnc2nc(N)nc(N)c2n1)c1ccc(C(=O)N[C@@H](CCC(=O)O)C(=O)O)cc1 [Methotrexate] |  |  |  |  |  |  |  |  |  | giant cell formation [4]: increases giant cell formation
